Source: patent US20020192161A1, “Animal model for evaluating analgesics” (priority 2001, published 2002)
Where two headings read alike, the source gives them in different places.

Columns and labels:
[1] = Bioavailability of oral ibuprofen crushed tablets in control rats; format: in vivo, Sprague-Dawley rats
Experimental: (§1) The animal models are Adult male Sprague-Dawley rats with body weight of 250-300 g, and which were cared for in accordance with the principles and guidelines of the Canadian Council of Animal Care. All rats were catheterized in the right jugular vein for sample collection.
(§2) The tablets were crushed gently and small pieces were administered into the stomach via a plastic tube followed by 0.5 mL tap water. […] They had free access to water.

[2] = cited from earlier work
[3] = cited from earlier work; for area under serum drug concentration AUC0-2h: 200 mg dose; for AUC0-2h: 600 mg dose
[4] = Bioavailability of oral ibuprofen formulations in vagal-suppressed (propantheline-treated, Pain Model) rats; format: in vivo; conditions: male, Sprague-Dawley, rat, plasma, 20 mg/kg
Experimental: as §1
An animal model having suppressed vagal properties were produced by administering (intraperitoneal injection) to the rats two 20 mg/kg doses of propantheline (test, n=6), an anticholinergic agent with known vagal suppressive properties, the first dose at 2 hours prior to administration of an NSAID, and the second at 1 hour prior.
as §2

[5] = male, Sprague-Dawley, rat, plasma, po, 20 mg/kg

Row | Compound | AUC (0-8) ([1]; control rats, 20 mg/kg ibuprofen oral as crushed tablets) | Cmax [1, 5] | Tmax [1, 5] | solubility in water [2] | delay in the mean time to peak concentration caused by surgery ([3]; 200 mg and 600 mg doses, dental surgery) | Cmax [4] | Tmax [4] | area under serum drug concentration AUC0-2h ([3]; before dental extraction) | AUC0-2h ([3]; after dental extraction) | AUC0-2h ([3]; before dental extraction)
1 | CC(C)Cc1ccc(C(C)C(=O)O)cc1 (racemic) [ibuprofen, (±)-2-(4-Isobutylphenyl)propionic acid] | 139 μg/h/mL^−1 | 40400 ng/mL | 16.8 min | less than 1 part of drug in 10,000 parts o | two | 13800 ng/mL | 45 min |  |  | 
2 | CC(C)Cc1ccc([C@@H](C)C(=O)O)cc1 [R-ibuprofen, R(−)-2-(4-isobutylphenyl)propionic acid] |  |  |  |  |  |  |  | 5.5 mg/L^−1/h | 5800 ng·h/mL | 14400 ng·h/mL
3 | CC(C)Cc1ccc([C@H](C)C(=O)O)cc1 [S-ibuprofen, S(+)-2-(4-isobutylphenyl)propionic acid] |  |  |  |  |  |  |  | 5.6 mg/L^−1/h | 7200 ng·h/mL | 14200 ng·h/mL
